From US7259140B2, “Heparin-binding peptides and uses thereof” (Thomas Jefferson University, priority 2003, dated 2007)
“Also recorded” adds a separate entry of the source. Ends that are not written are not given here.

Experiments:
[1] = Affinity coelectrophoresis (ACE) of peptide binding to radiolabeled low Mr heparin; parameters: species or system pig
Excerpt: Preparation of Radiolabeled Heparin. Whole heparin from pig intestinal mucosa (Sigma) was tyramine end-labeled and radiolabeled with Na^125I (Amersham, Pharmacia Biotech, Inc., Piscataway, N.J.) to an average specific activity≅1.0×10^7 CPM/μg as described (San Antonio, J. D., et al., Biochemistry, 32:4746-4755, 1993). Radiolabeled heparin was fractionated on Sephadex G-100 (Bio-Rad Laboratories, Hercules, Calif.) and the final≅12% of material to elute was retained as the low Mr material of ≦6,000 (Jordan, R., D. Beeler, and R. Rosenberg, J. Biol. Chem., 254:2902-2913, 1979; Laurent, T. C., et al., Biochem. J., 175:691-701, 1978).
Analysis of Peptide-Heparin Interactions by Affinity Coelectrophoresis (ACE). ACE was used to study interactions between peptides and low molecular weight (low Mr) heparin (WO00/45831). In ACE, trace concentrations of radiolabeled heparin are electrophoresed through agarose lanes containing peptides at various concentrations. These analyses are used to determine the dissociation constants (Kd's). The electrophoretic patterns of radiolabeled heparin are then visualized using a phosphorimager, and the dissociation constant (Kd) corresponds to the protein concentration at which the heparin is half shifted from being fully mobile at very low protein concentrations to maximally retarded at saturating protein concentrations. The lower the Kd value, the higher the affinity.
Binding of radiolabeled heparin to peptides was studied by ACE as detailed elsewhere (San Antonio, J. D., et al., Biochemistry, 32:4746-4755, 1993). […] Briefly, peptides were dissolved in 1×ACE running buffer, 50 mM sodium 3-(N-morpholino)-2-hydroxypropanesulfonate (MOPSO, Sigma)/125 mM sodium acetate, pH 7.0, and serially diluted in running buffer at 2× concentrations. Peptides were then mixed 1:1 with 2% agarose/1% CHAPS, 3-[(3-cholamidopropyl)dimethylammonio]-1-propanesulfonate, (Boehringer Mannheim, Indianapolis, Ind.), and loaded into wells of a 1% agarose gel. Radiolabeled heparin was then loaded in a slot on the anode side of the gel, and electrophoresed through the peptide-containing wells, towards the cathode. Gels were dried and PG mobility was measured with a Phosphorimager (Molecular Dynamics, Sunnyvale, Calif.) by scanning each protein lane and determining the relative radioactivity content per 88-μm pixel through the length of the lane. Retardation coefficient (R) measurements, binding isotherm curve fittings, and apparent Kd value determinations were calculated as detailed previously (Lee, M. K., and A. D. Lander, Proc. Natl. Acad. Sci. USA, 88:2768-2772, 1991; San Antonio, J. D., et al, Biochemistry, 32:4746-4755, 1993).
Retardation coefficients (R) for the migration of low Mr 1^25I-tyramine-heparin through peptides were determined from ACE gel electrophoretograms, and are plotted against peptide concentration. Smooth curves represent non-linear least-squares fits to the equation R=R∞/{1+(Kd/[peptide])^n}.

[2] = Hemodynamic effects in rats without prior Lovenox; details: no Lovenox
Procedure: Rats were sedated, and catheters were inserted into the femoral vein and femoral artery. The femoral artery catheter was hooked up to the computerized monitoring system, and injections were made through the femoral vein. Peptides were injected into rats without prior injection of Lovenox. Two or more rats (300-350 grams) were treated with 2 mg protamine or peptide.
At the times indicated in the figures, the following actions were taken: administration of saline to insure that the animal and intubations were stable; administration of test peptide or protamine alone; then administration of protamine.

[3] = tested on: platelets; experiment: Platelet aggregation with aggregation-inducing agents; format: cell-based, human; details: 12 μg/ml; Lovenox 0.5 U/ml; collagen, ADP, ristocetin, epinephrine, SFFLRN, A23187
Procedure: Plasma from six volunteers was tested with various aggregation inducing agents, at several concentrations of each agent, and with six different peptides of the invention. The effect of heparin-binding peptides of the invention on platelet aggregation was determined using standard procedures as previously described. The six peptides which were synthesized and tested were: (ARKKAAKA)4 (SEQ ID NO:31), ARKKAAKA(A16)ARKKAAKA (SEQ ID NO:30), (ARKKAAKA)3ARKKCAKA (SEQ ID NO:33), (ARKKAAKA)3VLVLVLVL (SEQ ID NO:5), C(ARKKAAKA)4C (SEQ ID NO:34), and (AKKARA)6 (SEQ ID NO:32).
The aggregation-inducing agents tested were: collagen, adenosine diphosphate (ADP), ristocetin, epinephrine, the thrombin receptor peptide SFFLRN, and calcium ionophore A23187. Platelets were subjected to protamine, or to SEQ ID NOS:31, 33, 30, 5, 34, or 32 at 12 μg/ml, and Lovenox® at 0.5 U/ml. Platelet aggregation in response to agonists was monitored and percent aggregation was determined over a five minute interval.
The agonist was added after equilibration of the platelets for one minute.

[4] = tested on: anti-Factor Xa Activity of the Low Molecular Weight Heparin Lovenox ®; experiment: Anti-Factor Xa assay (Stachrom Heparin kit): neutralization of Lovenox in citrate or plasma in vitro; format: biochemical, human; details: in both citrate and plasma
Procedure: (§1) The ability of peptides such as (ARKKAAKA)3VLVLVLVL (SEQ ID NO:5) to neutralize the anti-Factor Xa activity of UFH and LMWH in vitro was tested using the Stachrom Heparin kit (Diagnostica Stago), a standard hematology laboratory assay used to measure the anti-Factor Xa activity of heparin. The assay was performed using the low molecular weight heparin enoxaparin sodium (Lovenox®, Aventis Pharmaceuticals, Inc.), unfractionated heparin (UFH), or the non-heparin glycosaminoglycan danaparoid sodium (Orgaran®, Organon Inc., West Orange, N.J.) in 0.32% citrate or in plasma anticoagulated with 0.32% citrate. Enoxaparin is commonly used clinically as a low molecular weight heparin (LMWH). Danaparoid is commonly used clinically as a non-heparin glycosaminoglycan anticoagulant. Currently, the only FDA approved drug to target UFH is protamine, which is not effective in vivo against LMWH or a non-heparin glycosaminoglycan such as danaparoid. Buffer and ATIII are added to form the heparin/ATIII complex, peptide is added, then Factor Xa, reporter dye substrate for Factor Xa activity, and stop solution, and the dye concentration is read at 405 nm. The absorbance of the dye increases with increasing Factor Xa activity, and thus is inversely proportional to the heparin (anti-Factor Xa activity) concentration. Peptides were tested in plasma obtained from three volunteers (A, B, and C). Platelet function inhibitors PG12 and theophylline were added to the blood immediately upon collection.
Results. […] (ARKKAAKA)3VLVLVLVL (SEQ ID NO:5) and VLVL(ARKKAAKA)3ARKKCAKA (SEQ ID NO:38) were able to neutralize about 0.4 U/ml anti-Factor Xa activity of LMWH at a concentration of 12 μg/ml, which would be an effective dose for patients. (AKKARA)6 (SEQ ID […]), (ARKKAAKA)4 (SEQ ID NO:31) and (ARKKAAKA)3ARKKCAKA […] 0.3-0.35 U/ml. In contrast, 12 μg protamine only neutralized about 0.25 U/ml of LMWH under these conditions.

[5] = tested on: anti-Factor Xa Activity of Unfractionated Heparin; experiment: Anti-Factor Xa assay: neutralization of unfractionated heparin in citrate or plasma in vitro; format: biochemical, human; details: in both citrate and plasma
Procedure: as §1, with “collection. […]” for “collection.”

[6] = Hemodynamic effects in rats after administration of the LMWH Lovenox; details: in the presence of LMWH Lovenox
Procedure: Next, experiments were performed in which the animals were treated with the peptides after the administration of the LMWH Lovenox®, as would happen in the clinical situation, because binding of peptides to LMWH would be expected to reduce the effects of the peptides on hemodynamic function.

[7] = tested on: Lovenox ® Activity in Blood from Patients Treated with Lovenox ®; experiment: Neutralizing Lovenox activity in blood from patients treated with Lovenox (anti-Factor Xa assay); format: biochemical, human; details: Peptide 12 μg/ml
Procedure: Blood was obtained from volunteers who were being treated with Lovenox® for their medical conditions after obtaining signatures on informed consent forms as approved by the Institutional Review Board. The assays to test neutralization of Lovendx® were performed as described for Table 2. A dose response from 1-60 μg/ml was evaluated as in Table 2.
The dose response pattern for the effective peptides was similar to the dose response in control plasma to which Lovenox® had been added. Each data point represents the mean and standard deviation of triplicate analyses on the same sample of blood from each patient.

## (ARKKAAKA)4VLVLVLVL (ARKKAAKAARKKAAKAARKKAAKAARKKAAKAVLVLVLVL; Fragment) [SEQ ID NO:1]
[1]
  affinity for low molecular weight heparin: high affinity

## AKKARAAKKARAAKKARAAKKARAAKKARAAKKARA [(AKKARA)6]
[2]; 2 mg per rat (300-350 grams)
  reduction/drop of blood pressure: about 30 mm Hg
[2]; 2 mg per rat
  time to nadir of blood pressure: 2 min
[3]
  effect on platelet aggregation: no significant inhibition or enhancement of aggregation

## ARKKAAKA (Fragment) [monomer, control peptide, reference compound]
[4]
  effect in the anti-Factor Xa assay for Lovenox: no effect
[5]
  effect in the anti-Factor Xa assay for UFH: no effect
[1]
  affinity for low molecular weight heparin: negligible affinity

## ARKKAAKAARKKAAKAARKKAAKAARKKCAKA [(ARKKAAKA)3ARKKCAKA, (ARKKAAKA)3(ARKKCAKA)]
[6]
  effect on blood pressure and heart rate / toxicity: no significant effect on blood pressure and heart rate; also recorded: All rats tested showed no response to peptide
[2]; 2 mg per rat
  effect on blood pressure: did not cause a change in blood pressure
[3]
  effect on platelet aggregation: no significant inhibition or enhancement of aggregation

## VLVLARKKAAKAPARKKAAKAVLVL
[7]; blood of Lovenox-treated Patient Number 1
  Lovenox ® Neutralized: 0.027 U/ml
[7]; blood of Lovenox-treated Patient Number 2
  Lovenox ® Neutralized: 0.012 U/ml
[7]; blood of Lovenox-treated Patient Number 3
  Lovenox ® Neutralized: 0.021 U/ml
[7]; blood of Lovenox-treated Patient Number 4
  Lovenox ® Neutralized: 0.022 U/ml
[7]; blood of Lovenox-treated Patient Number 5
  Lovenox ® Neutralized: 0 U/ml
[7]; blood of Lovenox-treated Patient Number 8
  Lovenox ® Neutralized: 0.018 U/ml
[7]; blood of Lovenox-treated Patient Number 9
  Lovenox ® Neutralized: 0.007 U/ml
[7]; blood of Lovenox-treated Patient Number 10
  Lovenox ® Neutralized: 0.025 U/ml
[7]; blood of Lovenox-treated Patient Number 11
  Lovenox ® Neutralized: 0.050 U/ml
[1]; pH 7.0, mean and standard deviation of four assays, read-out: Kd (nM), affinity for low molecular weight heparin
  Kd: 5220 ± 1550 nM
